Source: patent publication US11319307B2, “2,3-dihydrobenzohurans as bromodomain inhibitors” (GLAXOSMITHKLINE INTELLECTUAL PROPERTY (NO.2) LIMITED, priority 2017, dated 2022)

System: BET family (BRD2, BRD3, BRD4 and BRDT) single and double mutant tandem domain proteins
Test: Fluorescence Polarisation binding of Reference Compound X to mutant tandem BET proteins
Design: species or system Human
Protocol: The competition of the compounds of formula (I) with Reference Compound X for binding to the BET family (BRD2, BRD3, BRD4 and BRDT) was assessed using protein truncates spanning both bromodomain 1 (BD1) and bromodomain 2 (BD2). In order to monitor differential binding to either BD1 or BD2, single residue mutations of key tyrosines to alanine were made in the acetyl lysine binding pockets. To validate this approach, a double residue mutant tandem domain protein was produced for each of the BET family members. Utilising a Fluorescence Polarisation approach, binding affinities for each of the single and double mutants for Reference Compound X were determined. […] The affinities of the single mutated bromdomain tandem proteins for Reference Compound X were equi-potent with the corresponding non-mutated BET protein. […] In the TR-FRET competition assay, Reference Compound X is used at a concentration that is equivalent to the Kd for the non-mutated bromodomain, which ensures that no binding at the mutated bromodomain is detected. […]

In the case of COc1ccc2c(c1)C(c1ccc(Cl)cc1)=N[C@@H](CC(=O)NCCCCCNC(=O)CCCCCC1(C)/C(=C/C=C/C=C/C3=[N+](CCCCS(=O)(=O)O)c4ccc(S(=O)(=O)O)cc4C3(C)C)N(CCCCS(=O)(=O)[O-])c3ccc(S(=O)(=O)O)cc31)c1nnc(C)n1-2 (some centres unmarked) [Reference Compound X], the “reduction in Kd (affinity for Reference Compound X)” value (double mutant tandem proteins versus non mutated, wild type tandem BET proteins) is reported as greater than 1000 fold and the “reduction of the Kd of the interaction between the mutated bromodomain and Reference Compound X” value (single mutations of Tyrosine to Alanine) is reported as greater than 1000 fold.
